From US11505573B2, “Peptide macrocycles against Acinetobacter baumannii” (Hoffmann-La Roche Inc., priority 2018, dated 2022)

Test system: A. baumannii ATCC 17978
Assay: Antimicrobial susceptibility testing: 50% growth inhibitory concentration (IC50) determination in Iso-Sensitest broth
Type: cell-based
Details: Acinetobacter baumannii; A. baumannii strain ATCC17978; Iso-Sensitest medium; OD 600 nm over 16 h; 35±2° C.; read-out: IC50 ATCC17978 (50% growth inhibition concentration)
Experimental: Antimicrobial Susceptibility Testing: 50% Growth Inhibitory Concentration (IC50) Determination The in vitro antimicrobial activity of the compounds was alternatively determined according to the following procedure: The assay used a 10-points Iso-Sensitest broth medium to measure quantitatively the in vitro activity of the compounds against A. baumannii ATCC 17978. Stock compounds in DMSO were serially twofold diluted (e.g. range from 10 to 0.02 μM final concentration) in 384 wells microtiter plates and inoculated with 49 μl the bacterial suspension in Iso-Sensitest medium to have a final cell concentration of ˜5×10^(5) CFU/ml in a final volume/well of […] Microtiter plates were incubated at 35±2° C. Bacterial cell growth was determined by the measurement of optical density at λ=600 nm each 20 minutes over a time course of 16 h. Growth inhibition was calculated during the logarithmic growth of the bacterial cells by determination of the concentration inhibiting 50% (IC50) and 90% (IC90) of the growth. Table 1 provides the 50% growth inhibitory concentrations (IC50) in micromoles per liter of the compounds of present invention obtained against the A. baumannnii strain ATCC17978.

IC50 [nM]	SMILES
20	CN1C(=O)[C@H](CCCCN)NC(=O)[C@H](CCCN)NCc2cccnc2Sc2c(F)ccc(-c3ccc(S(=O)(=O)O)cc3)c2CNC(=O)[C@@H]1Cc1c[nH]c2ccccc12 [Example 7.00, 4-[(11S,14S,17S)-14-(4-Aminobutyl)-11-(3-aminopropyl)-25-fluoro-17-(1H-indol-3-ylmethyl)-16-methyl-12,15,18-trioxo-2-thia-4,10,13,16,19-pentazatricyclo[19.4.0.03,8]pentacosa-1(25), 3(8),4,6,21,23-hexaen-22-yl]benzenesulfonic acid]
20	CN1C(=O)[C@H](CCCCN)NC(=O)[C@H](CCCN)NCc2cccnc2Sc2c(F)ccc(-c3ccc(-c4nnn[nH]4)cc3)c2CNC(=O)[C@@H]1Cc1c[nH]c2ccccc12 [Example 7.01, (11S,14S,17S)-14-(4-aminobutyl)-11-(3-aminopropyl)-25-fluoro-17-(1H-indol-3-ylmethyl)-16-methyl-22-[4-(1H-tetrazol-5-yl)phenyl]-2-thia-4,10,13,16,19-pentazatricyclo[19.4.0.03,8]pentacosa-1(25),3(8),4,6,21,23-hexaene-12,15,18-trione]
30	CC(=O)NS(=O)(=O)c1ccc(-c2ccc(F)c3c2CNC(=O)[C@H](Cc2c[nH]c4ccccc24)N(C)C(=O)[C@H](CCCCN)NC(=O)[C@H](CCCN)NCc2cccnc2S3)cc1 [Example 7.02, N-[4-[(11S,14S,17S)-14-(4-aminobutyl)-11-(3-aminopropyl)-25-fluoro-17-(1H-indol-3-ylmethyl)-16-methyl-12,15,18-trioxo-2-thia-4,10,13,16,19-pentazatricyclo[19.4.0.03,8]pentacosa-1(25),3(8),4,6,21,23-hexaen-22-yl]phenyl]sulfonylacetamide]
40	CN1C(=O)[C@H](CCCCN)NC(=O)[C@H](CCCN)NCc2cccnc2Sc2c(F)ccc(-c3ccc(C(=O)NS(C)(=O)=O)cc3)c2CNC(=O)[C@@H]1Cc1c[nH]c2ccccc12 [Example 7.03, 4-[(11S,14S,17S)-14-(4-aminobutyl)-11-(3-aminopropyl)-25-fluoro-17-(1H-indol-3-ylmethyl)-16-methyl-12,15,18-trioxo-2-thia-4,10,13,16,19-pentazatricyclo[19.4.0.03,8]pentacosa-1(25),3(8),4,6,21,23-hexaen-22-yl]-N-methylsulfonyl-benzamide]
20	CN1C(=O)[C@H](CCCN)NC(=O)[C@H](CCCN)NCc2cccnc2Sc2c(Cl)ccc(-c3ccc(S(=O)(=O)O)cc3)c2CNC(=O)[C@@H]1Cc1c[nH]c2ccccc12 [Example 8.00, 4-[(11S,14S,17S)-11,14-Bis(3-aminopropyl)-25-chloro-17-(1H-indol-3-ylmethyl)-16-methyl-12,15,18-trioxo-2-thia-4,10,13,16,19-pentazatricyclo[19.4.0.03,8]pentacosa-1(21),3,5,7,22,24-hexaen-22-yl]benzenesulfonic acid]

Further lines, the compound ahead of its results:

SMILES	IC50 [nM]
CN1C(=O)[C@H](CCCCN)NC(=O)[C@H](CCCN)NCc2cccnc2Sc2c(Cl)ccc(-c3ccc(S(=O)(=O)O)cc3)c2CNC(=O)[C@@H]1Cc1c[nH]c2ccccc12 [Example 1.00, 4-[(11S,14S,17S)-14-(4-Aminobutyl)-11-(3-aminopropyl)-25-chloro-17-(1H-indol-3-ylmethyl)-16-methyl-12,15,18-trioxo-2-thia-4,10,13,16,19-pentazatricyclo[19.4.0.03,8]pentacosa-1(25),3,5,7,21,23-hexaen-22-yl]benzenesulfonic acid]	20
CN1C(=O)[C@H](CCCCN)NC(=O)[C@H](CCCN)NCc2cccnc2Sc2c(Cl)ccc(-c3ccc4nn[nH]c4c3)c2CNC(=O)[C@@H]1Cc1c[nH]c2ccccc12 [Example 1.01, (11S,14S,17S)-14-(4-aminobutyl)-11-(3-aminopropyl)-22-(3H-benzotriazol-5-yl)-25-chloro-17-(1H-indol-3-ylmethyl)-16-methyl-2-thia-4,10,13,16,19-pentazatricyclo[19.4.0.03,8]pentacosa-1(25),3,5,7,21,23-hexaene-12,15,18-trione]	20
CN1C(=O)[C@H](CCCCN)NC(=O)[C@H](CCCN)NCc2cccnc2Sc2c(Cl)ccc(-c3ccc(-c4nnn[nH]4)cc3)c2CNC(=O)[C@@H]1Cc1c[nH]c2ccccc12 [Example 1.02, (11S,14S,17S)-14-(4-aminobutyl)-11-(3-aminopropyl)-25-chloro-17-(1H-indol-3-ylmethyl)-16-methyl-22-[4-(1H-tetrazol-5-yl)phenyl]-2-thia-4,10,13,16,19-pentazatricyclo[19.4.0.03,8]pentacosa-1(25),3,5,7,21,23-hexaene-12,15,18-trione]	100
CN1C(=O)[C@H](CCCCN)NC(=O)[C@H](CCCN)NCc2cccnc2Sc2c(Cl)ccc(-c3cccc(-c4nnn[nH]4)c3)c2CNC(=O)[C@@H]1Cc1c[nH]c2ccccc12 [Example 1.03, (11S,14S,17S)-14-(4-aminobutyl)-11-(3-aminopropyl)-25-chloro-17-(1H-indol-3-ylmethyl)-16-methyl-22-[3-(1H-tetrazol-5-yl)phenyl]-2-thia-4,10,13,16,19-pentazatricyclo[19.4.0.03,8]pentacosa-1(25),3,5,7,21,23-hexaene-12,15,18-trione]	360
CC(=O)NS(=O)(=O)c1ccc(-c2ccc(Cl)c3c2CNC(=O)[C@H](Cc2c[nH]c4ccccc24)N(C)C(=O)[C@H](CCCCN)NC(=O)[C@H](CCCN)NCc2cccnc2S3)cc1 [Example 1.04, N-[4-[(11S,14S,17S)-14-(4-aminobutyl)-11-(3-aminopropyl)-25-chloro-17-(1H-indol-3-ylmethyl)-16-methyl-12,15,18-trioxo-2-thia-4,10,13,16,19-pentazatricyclo[19.4.0.03,8]pentacosa-1(21),3,5,7,22,24-hexaen-22-yl]phenyl]sulfonylacetamide]	20
CN1C(=O)[C@H](CCCCN)NC(=O)[C@H](CCCN)NCc2cccnc2Sc2c(Cl)ccc(-c3cnc(=O)[nH]c3)c2CNC(=O)[C@@H]1Cc1c[nH]c2ccccc12 [Example 1.05, (11S,14S,17S)-14-(4-aminobutyl)-11-(3-aminopropyl)-25-chloro-17-(1H-indol-3-ylmethyl)-16-methyl-22-(2-oxo-1H-pyrimidin-5-yl)-2-thia-4,10,13,16,19-pentazatricyclo[19.4.0.03,8]pentacosa-1(25),3,5,7,21,23-hexaene-12,15,18-trione]	20
CN1C(=O)[C@H](CCCCN)NC(=O)[C@H](CCCN)NCc2cccnc2Sc2c(Cl)ccc(-c3ccn(Cc4nnn[nH]4)c(=O)c3)c2CNC(=O)[C@@H]1Cc1c[nH]c2ccccc12 [Example 2.00, (11S,14S,17S)-14-(4-Aminobutyl)-11-(3-aminopropyl)-25-chloro-17-(1H-indol-3-ylmethyl)-16-methyl-22-[2-oxo-1-(1H-tetrazol-5-ylmethyl)-4-pyridyl]-2-thia-4,10,13,16,19-pentazatricyclo[19.4.0.03,8]pentacosa-1(25), 3(8),4,6,21,23-hexaene-12,15,18-trione]	80
CN1C(=O)[C@H](CCCCN)NC(=O)[C@H](CCCN)NCc2cccnc2Sc2c(Cl)ccc(-c3ccc(-c4nsc(=O)[nH]4)cc3)c2CNC(=O)[C@@H]1Cc1c[nH]c2ccccc12 [Example 3.00, (11S,14S,17S)-14-(4-Aminobutyl)-11-(3-aminopropyl)-25-chloro-17-(1H-indol-3-ylmethyl)-16-methyl-22-[4-(5-oxo-4H-1,2,4-thiadiazol-3-yl)phenyl]-2-thia-4,10,13,16,19-pentazatricyclo[19.4.0.03,8]pentacosa-1(25), 3(8),4,6,21,23-hexaene-12,15,18-trione]	80
CN1C(=O)[C@H](CCCCN)NC(=O)[C@H](CCCN)NCc2cccnc2Sc2c(Cl)ccc(-c3ccc(-c4noc(=O)[nH]4)cc3)c2CNC(=O)[C@@H]1Cc1c[nH]c2ccccc12 [Example 4.00, (11S,14S,17S)-14-(4-Aminobutyl)-11-(3-aminopropyl)-25-chloro-17-(1H-indol-3-ylmethyl)-16-methyl-22-[4-(5-oxo-4H-1,2,4-oxadiazol-3-yl)phenyl]-2-thia-4,10,13,16,19-pentazatricyclo[19.4.0.03,8]pentacosa-1(25), 3(8),4,6,21,23-hexaene-12,15,18-trione]	20
CN1C(=O)[C@H](CCCCN)NC(=O)[C@H](CCCN)NCc2cccnc2Sc2cccc(-c3ccc(-c4nnn[nH]4)cc3)c2CNC(=O)[C@@H]1Cc1c[nH]c2ccccc12 [Example 5.00, (11S,14S,17S)-14-(4-Aminobutyl)-1-(3-aminopropyl)-17-(1H-indol-3-ylmethyl)-16-methyl-22-[4-(1H-tetrazol-5-yl)phenyl]-2-thia-4,10,13,16,19-pentazatricyclo[19.4.0.03,8]pentacosa-1(25), 3(8),4,6,21,23-hexaene-12,15,18-trione]	20
CN1C(=O)[C@H](CCCCN)NC(=O)[C@H](CCCN)NCc2nccnc2Sc2c(Cl)ccc(-c3ccc(S(=O)(=O)O)cc3)c2CNC(=O)[C@@H]1Cc1c[nH]c2ccccc12 [Example 6.00, 4-[(11S,14S,17S)-14-(4-Aminobutyl)-1-(3-aminopropyl)-25-chloro-17-(1H-indol-3-ylmethyl)-16-methyl-12,15,18-trioxo-2-thia-4,7,10,13,16,19-hexazatricyclo[19.4.0.03,8]pentacosa-1(25), 3(8),4,6,21,23-hexaen-22-yl]benzenesulfonic acid]	20
